The results in this text go back to ChEMBL document CHEMBL3430912, “GSK Tres Cantos Anti-Kinetoplastid Screening (TCAKS) Data”.

The nature of data set [1]: GSK_TCAKS: pIC50 HepG2 human cell line viability assay using luminiscence. […] Seeding density was checked to ensure that new mono-layers were not more than 50% confluent at the time of harvesting. Cell suspension was added to 500 mL of the same medium at a final density of 1.2 * 10^5 cells/mL. This cell suspension was dispensed (25 uL, 3000 cells per well) into 384-well clear-bottom plates using a Multidrop Combi dispenser. Prior to addition of the cell suspension, the screening compounds (250 nL) were pre-dispensed into the plates with an Echo liquid handler. Plates were incubated for 48 h at 37C, 5% CO2. After incubation, plates equilibrated at room temperature for 30 min before proceeding to develop the luminescent signal. The signal developer, CellTiter-Glo Reagent, was allowed to equilibrate at room temperature for 30 min and added to the plates (25uL per well) using a Multidrop Combi dispenser. Plates were left for 10 min at room temperature for stabilization and then read using a ViewLux. The class given is toxicity, cell-based. For orientation: In ATP-based viability assays light output follows the ATP content of the culture.

The test system of data set [2] is Leishmania donovani. Description: GSK_TCAKS: pIC50 Leishmania donovani Imaging: Amastigotes/Macrophages. Assay plates (384-well) were prepared by adding 250nL of compound to each well. For single shot assay, the final compound concentration was 5 uM. […] Automated image analysis was performed with a script developed on Acapella High Content Imaging and Analysis Software (PerkinElmer). Output: Average number of amastigotes per macrophage cell were reported for each well. It is filed as functional, organism-based, Homo sapiens. Conditions: THP-1.

Data set [3] has as its system Trypanosoma cruzi. The experiment in a line: (§1) GSK_TCAKS: pIC50 H2C9 Imaging: H9c2 Host Cardiomyocytes. […] Cells were then washed once with PBS before infection. T. cruzi trypomastigotes, collected at days 5 to 8 after infection from LLC-MK2 parasite infected cultures, were allowed to swim out for 4h at 37C from a centrifuged pellet (2,500 rpm/10 min/room temperature). Trypomastigotes were then collected and counted in a CASY Cell Counter. Trypomastigotes, in supplemented DMEM, were added to H9c2 cultures in a multiplicity of infection of 1 and incubated for 18 h. Cells were washed once with PBS before incubation of the infected H9c2 monolayer with trypsin (Life-Technologies) to detach cells from the flask. Cells were counted in a CASY Cell Counter using a 150 um capillary and their density set at 5 * 10^4 cells per mL in supplemented assay DMEM. Infected H9c2 were dispensed into 384-well poly-lysine coated assay plates at 50uL per well using a Multidrop Combi dispenser. After seeding them, the plates were incubated at 37C, 5% CO2 for 72h. Cultures were then fixed and stained by addition of 50 uL of a solution containing 8% formaldehyde and 4 uM DRAQ5 DNA dye (BioStatus, UK) per well. […] Five images were collected per well for reliable statistical analysis. Automated image analysis was performed with a script developed on Acapella High Content Imaging and Analysis Software (PerkinElmer). Output: Number of H9c2 Host Cardiomyocytes nuclei to determine drug-related cytotoxicity. It is filed as functional, organism-based, Rattus norvegicus. The following applies: H9c2, 4 h.

Data set [4] relates to Leishmania donovani. Description: GSK_TCAKS: pIC50 Leishmania donovani viability assay using fluorescence intensity. Assay plates (1536-well) were prepared by adding 30nL per well of compound. For single shot assay, the final compound concentration was 5uM. […] Briefly, eGFP LdBOB axenic amastigotes were harvested, fixed and counted in a CASY cell counter (Roche-Applied Science). A final concentration of 1.5 * 10^5 cells per well were prepared in amastigote media containing 500 U/mL penicillin/streptomycin (Invitrogen) and 6uL was dispensed to each experimental well using a Multidrop Combi dispenser (Thermo Scientific). 6uL of assay media was dispensed to control columns used as reference for 100% compound response. Following incubation for 72 h at 37C, 5% CO2, 2 uL of resazurin was added to each well at a final concentration of 0.5 mM in phosphate buffered saline (PBS) with IGEPAL (Sigma-Aldrich), 0.05% (v/v). The class given is functional, organism-based.

Data set [5] concerns Leishmania donovani. The experiment in a line: GSK_TCAKS: pIC50 Leishmania donovani Imaging: THP-1 Host Macrophages. Assay plates (384-well) were prepared by adding 250nL of compound to each well. For single shot assay, the final compound concentration was 5 uM. […] Automated image analysis was performed with a script developed on Acapella High Content Imaging and Analysis Software (PerkinElmer). Output: THP-1 cell count were reported for each well. It is filed as functional, organism-based, Homo sapiens.

The target in data set [6] is Sterol 14-alpha demethylase (Trypanosoma cruzi (strain CL Brener), UniProt Q7Z1V1). The experiment in a line: GSK_TCAKS: pIC50 CYP51 from Trypanosoma cruzi. It is filed as functional.
Data set [7] relates to Trypanosoma cruzi. The experiment in a line: GSK_TCAKS: pIC50 Trypanosoma cruzi viability assay using beta-GAL activity. This assay was run at single shot at 5uM compound concentration per well. The biological reagents consisted of NIH-3T3 host cells and trypomastigotes parasitic cells; both cell types were set to a 3.3 * 10^5 cells/mL dilution in assay DMEM by means of a CASY cell counter device using a 60um capillary. 6 uL of the mixture were dispensed per well (about 1 * 10^3 host-cells and 1 * 10^3 parasites) with a Multidrop Combi dispenser. […] In all wells, the percentage of DMSO never exceeded 0.5%. Plates incubated for four days at 37C, 5% CO2. The substrate used for the assay fluorescence intensity (FLINT) readout was resorufin-beta-D-galactopiranoside (Sigma-Aldrich) at 5uM per well. It was diluted in PBS supplemented with the soft detergent Igepal (Fluka). It is filed as functional, organism-based, Mus musculus. The following applies: Tulahuen, NIH3T3.

Data set [8] concerns Trypanosoma cruzi. Described as §1, with “Trypanosoma cruzi” for “H2C9”, “Amastigotes/Cell.” for “H9c2 Host Cardiomyocytes.”, “number” for “Number”, “amastigotes per cell as infection level measurement.” for “H9c2 Host Cardiomyocytes nuclei to determine drug-related cytotoxicity.”. Conditions: H9c2, 4 h. It is filed as functional, organism-based, Rattus norvegicus.
For data set [9], the system named is Leishmania donovani. Description: GSK_TCAKS: pIC50 Leishmania donovani Imaging: Infected Macrophages. Assay plates (384-well) were prepared by adding 250nL of compound to each well. For single shot assay, the final compound concentration was 5 uM. […] Automated image analysis was performed with a script developed on Acapella High Content Imaging and Analysis Software (PerkinElmer). Output: Percent of infected macrophage cells were reported for each well. The class given is functional, organism-based, Homo sapiens. Conditions: THP-1.

Data set [10] relates to Trypanosoma brucei brucei. Description: GSK_TCAKS: pIC50 Trypanosoma brucei viability assay using fluorescence intensity. Assay plates (1536-well) were prepared by dispensing 25nL of compound solution per well using an Echo acoustic dispenser (Labcyte). It is filed as functional, organism-based. Conditions: Lister 427, 2 h.
The subject of data set [11] is Trypanosoma cruzi. Described as §1, with “Trypanosoma cruzi” for “H2C9”, “Infected Cells.” for “H9c2 Host Cardiomyocytes.”, “percentage” for “Number”, “infected cells per well as a second infection marker.” for “H9c2 Host Cardiomyocytes nuclei to determine drug-related cytotoxicity.”. The class given is functional, organism-based, Rattus norvegicus. The following applies: H9c2, 4 h.

The subject of data set [12] is Trypanosoma brucei brucei. The experiment in a line: GSK_TCAKS: pIC50 Trypanosoma brucei viability assay using luminiscence. Assay plates (1536-well) were prepared. T. brucei cultures were harvested and counted in a CASY cell counter. A parasite suspension was prepared at a final concentration of 5 * 10^4 cells/mL in complete HMI9 medium and 6uL was dispensed to all wells containing compounds using a Multidrop Combi dispenser. 6uL of HMI9 media with 0.4% DMSO were dispensed to control columns. Plates were incubated for 24 h at 37C, 5% CO2 then tempered for 10 min at room temperature. ATP content was quantified by adding 4 uL of CellTiter-Glo Reagent (Promega) according to the manufacturer's instructions. Luminescence was measured using a ViewLux. The class given is functional, organism-based. Conditions: Lister 427, CASY.

For another data set, the system named is NIH3T3. The experiment in a line: GSK_TCAKS: pIC50 NIH 3T3 cell line viability assay using luminiscence. Tissue culture surface treated assay plates (1536-well) were used. […] The 100% cells survival control was determined exposing the host-cells to a 0.5% DMSO concentration, whereas the 100% toxicity control was achieved by seeding the cells in presence of Amphotericin B at 50uM. Plates were incubated for four days at 37C, 5% CO2. The assay readout was developed by addition of 5uL of CellTiter-Glo Reagent following the manufacturer's instructions. Luminiscence was measured using a ViewLux. It is filed as functional, cell-based. Conditions: Mus musculus, NIH3T3, 96 h.

Broadly, the IC50 is the midpoint of a concentration-inhibition curve.

Sequence of Sterol 14-alpha demethylase (Q7Z1V1 whole entry): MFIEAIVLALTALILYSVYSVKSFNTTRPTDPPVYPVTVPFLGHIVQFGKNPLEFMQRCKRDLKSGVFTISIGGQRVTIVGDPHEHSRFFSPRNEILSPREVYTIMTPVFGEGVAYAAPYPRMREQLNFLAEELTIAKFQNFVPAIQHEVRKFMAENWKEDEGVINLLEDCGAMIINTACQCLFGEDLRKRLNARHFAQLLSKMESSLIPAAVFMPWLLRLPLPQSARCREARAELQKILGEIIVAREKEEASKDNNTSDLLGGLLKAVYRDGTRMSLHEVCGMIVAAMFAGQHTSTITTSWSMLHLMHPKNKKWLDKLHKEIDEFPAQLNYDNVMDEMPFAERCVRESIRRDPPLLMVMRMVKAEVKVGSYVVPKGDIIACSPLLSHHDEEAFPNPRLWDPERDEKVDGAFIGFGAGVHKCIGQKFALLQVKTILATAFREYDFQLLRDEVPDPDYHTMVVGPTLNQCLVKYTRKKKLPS

Take `CCC(c1ccc(F)cc1)n1cncc1-c1cnn(C)c1` (stereo not given): the IC50 at 48 h in data set [1] was > 100 µM. Besides, the IC50 in the data set with Leishmania donovani [2] is > 50.1 µM; in the data set on Trypanosoma cruzi [3] it was > 50.1 µM; in the data set with Leishmania donovani [4], > 50.1 µM; in the data set on Leishmania donovani [5] it was > 50.1 µM; in [6] it was 0.0794 µM; in the data set with Trypanosoma cruzi [7], 0.2 µM. Further, the IC50 is 0.316 µM with Trypanosoma cruzi [8]; > 50.1 µM with Leishmania donovani [9]; > 39.8 µM in [10]; 0.316 µM in the data set on Trypanosoma cruzi [11]; > 39.8 µM in data set [12]; 25.1 µM in the data set with NIH3T3.
On to `O=C(Nc1ncc([N+](=O)[O-])s1)C1CC1`, for which the IC50 at 48 h in data set [1] was > 100 µM. The IC50 in the data set with Leishmania donovani [2] was > 50.1 µM; in the data set with Trypanosoma cruzi [3], > 50.1 µM; in the data set with Leishmania donovani [4] it was 39.8 µM; in the data set with Leishmania donovani [5] it was > 50.1 µM; in [6], > 100 µM; in the data set on Trypanosoma cruzi [7], 0.398 µM. In addition, the IC50 was 0.398 µM in the data set on Trypanosoma cruzi [8]; > 50.1 µM in the data set on Leishmania donovani [9]; 7.94 µM in [10]; 1 µM in the data set on Trypanosoma cruzi [11]; 39.8 µM in data set [12]; 31.6 µM in the data set on NIH3T3.
On to `CC(=Cc1ccccc1)CN1CCC(=O)N(Cc2cccnc2)CC1`, for which, in data set [1], the IC50 at 48 h was > 100 µM. The IC50 in the data set with Leishmania donovani [2] is 31.6 µM; with Trypanosoma cruzi [3], > 50.1 µM; with Leishmania donovani [4], > 50.1 µM; in the data set on Leishmania donovani [5], 39.8 µM; in [6], 0.1 µM; in the data set with Trypanosoma cruzi [7] it was 0.251 µM. The IC50 with Trypanosoma cruzi [8] was 0.501 µM; in the data set on Leishmania donovani [9] it was > 50.1 µM; in data set [10] it was > 39.8 µM; in the data set with Trypanosoma cruzi [11] it was 0.501 µM; in data set [12], > 39.8 µM; with NIH3T3 it was > 50.1 µM.
With `CN1CCN(c2nc(-c3ccc(Cl)cc3)c3c(N)n(C)nc3n2)CC1`, the IC50 at 48 h in [1] is 79.4 µM. In addition, the IC50 with Leishmania donovani [2] is 31.6 µM; with Trypanosoma cruzi [3] it was 25.1 µM; with Leishmania donovani [4] it was > 50.1 µM; in the data set on Leishmania donovani [5], 39.8 µM; in data set [6], > 100 µM; in the data set on Trypanosoma cruzi [7], 2 µM. Further, the IC50 in the data set on Trypanosoma cruzi [8] is 0.794 µM; with Leishmania donovani [9], 39.8 µM; in data set [10] it was 12.6 µM; in the data set on Trypanosoma cruzi [11] it was 1 µM; in [12], 31.6 µM; in the data set with NIH3T3, 25.1 µM.
Turning to `COc1ccc(C)cc1-c1csc(NC(=O)C(C)n2ccnc2)n1` (stereo not given), the IC50 at 48 h in data set [1] was > 100 µM. For the same molecule, the IC50 with Leishmania donovani [2] is > 50.1 µM; in the data set on Trypanosoma cruzi [3], > 50.1 µM; in the data set on Leishmania donovani [4], 3.16 µM; in the data set with Leishmania donovani [5], > 50.1 µM; in [6] it was 0.0398 µM; with Trypanosoma cruzi [7] it was 0.0708 µM. The IC50 in the data set on Trypanosoma cruzi [8] is 0.1 µM; with Leishmania donovani [9], > 50.1 µM; in [10], 25.1 µM; with Trypanosoma cruzi [11], 0.1 µM; in data set [12], > 39.8 µM; in the data set on NIH3T3 it was 50.1 µM.
